Results reported in EPA's ToxValDB 9.5.
≈ marks a conversion by molar mass, not a printed value.

Legend:
[1] = system: Mus musculus
[2] = system: Oryctolagus sp.
[3] = system: Apis mellifera; conditions: acute, mortality
[4] = system: Tagia sp.; conditions: acute; mortality
[5] = system: Oncorhynchus mykiss; conditions: for LC50: acute, mortality
[6] = system: Colinus virginianus; conditions: for LD50 / LC50: acute, mortality
[7] = system: Rattus norvegicus; conditions: for LD50: acute, mortality
[8] = system: Pontoscolex corethrurus; conditions: acute; mortality
[9] = system: Canidae; conditions: Dog Other
[10] = system: Sus scrofa; conditions: subchronic, Not specified
[11] = system: Daphnia magna; conditions: acute; mortality
[12] = system: Gallus gallus; conditions: subchronic, oral, diet
[13] = system: Bovidae; conditions: subchronic; duration: 57 days; oral; diet; no effects
[14] = system: Anas platyrhynchos; conditions: oral, mortality

Q: For `O=S(=O)([O-])c1cc(S(=O)(=O)[O-])c2c(N=Nc3ccc(S(=O)(=O)[O-])c4ccccc34)c(O)ccc2c1.[Na+].[Na+].[Na+]` [C.I. Acid Red 18, trisodium salt], which NOAEL ([1]; chronic, duration: 82 weeks, oral, diet, M/F, neurology) is on record?
A: 70 mg/kg-day

Q: Which results are given for `Oc1cccc2cccnc12` [8-Hydroxyquinoline]?
A: NOAEL ([2]; developmental, development): 5 mg/kg-day; LD50 ([3]; oral, unspecified): > 68.6 µg/piece; LC50 [4]: > 409 mg/kg; LC50 ([5]; duration: 96 hours): 2 µg/mL (≈ 13.8 µM); LD50 ([1]; acute, oral, mortality): 177 mg/kg; LD50 ([6]; oral, diet): > 1070 mg/kg-day; LD50 ([6]; oral): 311 mg/kg; NOAEL ([7]; chronic, duration: 2 years, body weight): 73.3 mg/kg-day; NOAEL ([7]; subchronic, duration: 90 days, oral, hematological): 97.7 mg/kg-day

Q: With `CSCc1ccsc1` [3-(Methylthio)methylthiophene] as the compound, how does the NOAEL (repeat dose other) read?
A: 0.29 mg/kg-day

Q: And the NOAEL ([7]; subchronic, duration: 90 days)?
A: 0.29 mg/kg-day

Q: Which LEL ([5]; chronic/long-term, duration: 8 weeks, oral, feed, no effects) does the source give for `COC(=O)CCC(=O)O[C@H]1CC(C)(C)C(/C=C/C(C)=C/C=C/C(C)=C/C=C/C=C(C)/C=C/C=C(C)/C=C/C2=C(C)C(=O)[C@@H](OC(=O)CCC(=O)OC)CC2(C)C)=C(C)C1=O` [Astaxanthin dimethylsuccinate] here?
A: 908 mg/kg

Q: And the NOAEL ([1]; chronic, duration: 80 weeks, oral, body weight)?
A: 14 mg/kg-day

Q: Which NOAEL ([2]; developmental, development) does the source give for `CS(=O)(=O)c1cc(C(F)(F)F)ccc1C(=O)c1cnoc1C1CC1` [Isoxaflutole] here?
A: 5 mg/kg-day

Q: What about the NOAEL ([7]; chronic, duration: 2 years, histopathology: nonneoplastic) of the same compound?
A: 2 mg/kg-day

Q: What about the NOAEL ([7]; reproduction developmental, organ weight) of the same compound?
A: 2 mg/kg-day

Q: For `CCO` [Ethanol], which LC50 ([5]; duration: 24 hours) is on record?
A: 11200 µg/mL (≈ 243000 µM)

Q: And the NOAEL ([7]; subchronic, duration: 90 days, oral, gavage, organ weight)?
A: 1730 mg/kg-day

Q: With `CCC=C(C)C(=O)O` [2-Methylpent-2-en-1-oic acid] as the compound, how does the LC50 [8] read?
A: 2040 mg/kg

Q: With `CCc1nc(C)cs1` [Thiazole, 2-ethyl-4-methyl-] as the compound, how does the LC50 [8] read?
A: 193 mg/kg

Q: For `O=[N+]([O-])[O-]` [Nitrate], which NOEL ([9]; chronic, duration: 125 days, growth) is on record?
A: 370 mg/kg-day

Q: And the NOEL ([7]; chronic, duration: 2 years, growth)?
A: 370 mg/kg-day

Q: What about the NOAEL ([10]; duration: 84 days, no effects) of the same compound?
A: 410 mg/kg-day

Q: What does the source list for `CCN(CC)c1ccc(C(=C2C=CC(=[N+](CC)CC)C=C2)c2cc(O)c(S(=O)(=O)[O-])cc2S(=O)(=O)[O-])cc1.[Na+]` [C.I. Food Blue 5:2]?
A: NOAEL ([1]; chronic, duration: 21 months, M, hematological): 500 mg/kg-day; NOAEL ([1]; chronic, duration: 23 months, F, hematological): 500 mg/kg-day

Q: Which NOAEL ([2]; developmental, development) does the source give for `CC(O)(Cn1cncn1)c1ccc(Oc2ccc(Cl)cc2)cc1C(F)(F)F` (centres undefined) [Mefentrifluconazole] here?
A: 15 mg/kg-day

Q: What about the NOAEL ([1]; chronic, duration: 18 months, organ weight) of the same compound?
A: 3.5 mg/kg-day

Q: And the NOAEL ([1]; subchronic, duration: 90 days, organ weight)?
A: 2 mg/kg-day

Q: Which LD50 ([3]; dermal) does the source give for `N#Cc1nn(-c2c(Cl)cc(C(F)(F)F)cc2Cl)c(N)c1S(=O)C(F)(F)F` (centres undefined) [Fipronil] here?
A: 0.00593 µg/piece

Q: What about the LD50 ([3]; oral, unspecified) of the same compound?
A: 0.00417 µg/piece

Q: With `Nc1ccc(Cl)c(Cl)c1` [3,4-Dichloroaniline] as the compound, how does the LD50 ([6]; oral) read?
A: 99.1 mg/kg-day

Q: For `CCOC(=O)C(CC)C(C)=O` (centres undefined) [Butanoic acid, 2-ethyl-3-oxo-, ethyl ester], which NOAEL (repeat dose other, development) is on record?
A: 600 mg/kg-day

Q: For `COc1nc(C)nc(N)n1` [2-Methyl-4-amino-6-methoxy-s-triazine], which LD50 (acute, dermal, F, mortality) is on record?
A: 1000 mg/kg

Q: What about the LC50 (acute, inhalation, mortality) of the same compound?
A: > 5.2 µg/mL

Q: For `COC(=O)[C@H](Cc1ccccc1)NC(=O)[C@H](CC(=O)O)NCCCc1ccc(OC)c(O)c1.O`, which NOAEL ([2]; reproduction developmental, duration: 22 days, oral, gavage, F, New Zealand, clinical signs) is on record?
A: 500 mg/kg-day

Q: Which LC50 ([6]; oral, diet) does the source give for `CC(C)C1C2CCC1c1c(NC(=O)c3cn(C)nc3C(F)F)cccc12` (centres undefined) [Isopyrazam] here?
A: 1310 mg/kg-day

Q: What about the LD50 ([6]; oral) of the same compound?
A: > 2000 mg/kg-day

Q: And the NOEC ([6]; reproduction developmental)?
A: 32.5 mg/kg-day

Q: What about the LD50 ([7]; oral) of the same compound?
A: 2000 mg/kg-day

Q: What about the NOEL ([7]; chronic) of the same compound?
A: 41 mg/kg-day

Q: And the LOAEL ([7]; chronic, duration: 2 years, organ weight)?
A: 5.5 mg/kg-day

Q: And the NOAEL ([7]; developmental, development)?
A: 20 mg/kg-day

Q: What about the NOAEL ([7]; reproduction developmental, duration: 2 years, body weight) of the same compound?
A: 8 mg/kg-day

Q: Which LC50 [11] does the source give for `CC(=O)c1cc(C)sc1C` [3-Acetyl-2,5-dimethylthiophene] here?
A: 6.95 µg/mL (≈ 45.1 µM)

Q: Which LC50 ([5]; duration: 96 hours) does the source give for `CCOc1ccc2c(c1)C(C)=CC(C)(C)N2` [Ethoxyquin] here?
A: 18 µg/mL (≈ 82.8 µM)

Q: What about the NOEL ([9]; subchronic, duration: 90 days, clinical signs) of the same compound?
A: 2 mg/kg-day

Q: What about the LC50 ([6]; oral, diet) of the same compound?
A: > 2420 mg/kg-day

Q: What about the NOEC ([6]; short-term, oral, diet) of the same compound?
A: 1500 mg/kg-day

Q: And the LD50 ([7]; oral)?
A: 1730 mg/kg-day

Q: Which results are given for `CCCC(=O)C(CC)Sc1ccoc1C` (centres undefined) [3-(2-Methyl-3-furylthio)-4-heptanone]?
A: NOAEL (subchronic, duration: 90 days): 3.76 mg/kg-day; NOAEL ([7]; subchronic, duration: 90 days, oral, diet): 3.76 mg/kg-day; NOAEL ([7]; subchronic, duration: 90 days, oral, diet, M/F, no effects): 3.76 mg/kg-day

Q: What does the source list for `CSCCC(O)C(=O)[O-].CSCCC(O)C(=O)[O-].[Zn+2]` (centres undefined)?
A: LEL ([12]; duration: 8 weeks, clinical chemistry): 450 mg/kg-day; LEL ([12]; duration: 35 days, Chicken, body weight): 450 mg/kg-day; LEL [13]: 450 mg/kg-day; LEL ([10]; duration: 42 days, oral, diet, M/F, body weight): 450 mg/kg-day

Q: Which LC50 [8] does the source give for `CCc1ncc(C)nc1CC` [Pyrazine, 2,3-diethyl-5-methyl-] here?
A: 228 mg/kg

Q: Which LD50 ([6]; oral) does the source give for `O=c1c2cc(F)ccc2nc(-n2cncn2)n1-c1ccc(Cl)cc1Cl` [Fluquinconazole] here?
A: > 2000 mg/kg-day

Q: And the NOEL ([6]; chronic)?
A: 1.9 mg/kg-day

Q: And the LD50 [7]?
A: > 112 mg/kg-day

Q: And the NOAEL ([7]; chronic)?
A: 0.9 mg/kg-day

Q: And the LD50 ([14]; acute, unspecified)?
A: > 2000 mg/kg-day

Q: What about the LD50 ([14]; short-term, feed) of the same compound?
A: > 210 mg/kg-day
